# Reference: patent publication US20240399000A1, “GADOLINIUM-BASED COMPOUND AND MRI CONTRAST AGENT COMPRISING SAME” (KYUNGPOOK NATIONAL UNIVERSITY INDUSTRY-ACADEMIC COOPERATION …, priority 2021, published 2024)
# Columns and labels:
# amyloid beta polymer = amyloid beta polymer (Homo sapiens, UniProt P05067); assay: Amyloid beta polymer targeting ability, MRI phantom experiment (9.4T); assay type: binding; conditions: incubated with amyloid beta polymer 37° C. 24 hours, washed, 9.4T MR
# Protocol: (1) 221.5 uL of HFIP was added to 1 mg of amyloid beta at a concentration of 1 mM, followed by shaking for 1 hour at room temperature using a shaker to remove preaggregation. (2) The amyloid beta from which the preaggregation was removed was dried, and 221.5 uL of DMSO was added thereto to achieve a 1 mM concentration. Using a mixer and sonicator, a suspension thereof was prepared, and 878.5 uL of PBS (1×, pH 7.4) was added thereto to achieve a 0.2 mM concentration. (3) After incubating the suspension at 37° C. for 4 days using a shaker, the polymerized amyloid beta polymer was dispensed by 200 μL. Then, 20 μL of a solution in which each of Gd-DO3A-Pca and the commercial contrast agent (Gadovist®) was dissolved in PBS at 2 mM concentration was added thereto. The incubation was carried out thereon at 37° C. for 24 hours using a shaker. (4) After 24 hours has elapsed, centrifugation was performed thereon to remove the supernatant therefrom. The amyloid beta polymer was washed using PBS. 200 μL of a solution of PBS:DMSO=9:1 was added to a pellet to prepare an MRI phantom sample. As a control, a phantom sample obtained by incubating only the amyloid beta polymer was used. […]
# [1] = Measurement of relaxivity (r1, r2) in 3T MRI phantom; assay type: physicochemical; conditions: tertiary distilled water, 0.0625-1 mM, linear regression, in mM-1 s-1 (unit assumed)
# Protocol: The relaxivity (r1, r2) of each of synthesized Gd-DO3A-Pca, and cyclic commercial contrast agents Gadovist® and Dotarem® as comparison groups material was measured. Specifically, a phantom was prepared by diluting the gadolinium complex in tertiary distilled water to five concentrations (0.0625, 0.125, 0.25, 0.5, 1 mM), and then T1 and T2 relaxation times were measured in 3T MRI. Thus, R (Relaxation rate=1/T) of each concentration was calculated and the relaxivity (r1, r2) result of the gadolinium complex was obtained through linear regression analysis (see FIG. 3) and shown in a following Table 1.
# Chain of amyloid beta polymer (P05067 672-713 limits assumed): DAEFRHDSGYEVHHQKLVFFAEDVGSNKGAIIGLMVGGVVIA
SMILES,contrast enhancement / signal intensity of phantom vs phantom of only amyloid beta polymer (amyloid beta polymer),relaxivity r1 [1],relaxivity r2 [1]
O=C([O-])CN1CCN(CC(=O)[O-])CCN([C@H](CO)[C@H](O)CO)CCN(CC(=O)[O-])CC1.[Gd+3] (racemic) [Gadovist ®],little difference in contrast enhancement effect,3.9 ± 0.1,4.8 ± 0.1
CNC[C@H](O)[C@@H](O)[C@H](O)[C@H](O)CO.O=C([O-])CN1CCN(CC(=O)[O-])CCN(CC(=O)O)CCN(CC(=O)[O-])CC1.[Gd+3] [Dotarem ®],,3.4 ± 0.1,3.9 ± 0.2
